Test results: patent publication US9527856B2, “Oxindole compounds carrying a CO-bound spiro substituent and use thereof for treating vasopressin-related diseases” (AbbVie Deutschland GmbH & Co. KG, priority 2014, dated 2016)
Read-outs that look alike come from different tables or passages of the source.

Columns and labels:
[1] = molecular target: T1, human vasopressin V1b receptor (Homo sapiens, UniProt P47901); settings: read-out: Ki(h-V1b)*, CHO-K1 cell membranes, displacement of 3H-AVP
T1 sequence (P47901 1-424): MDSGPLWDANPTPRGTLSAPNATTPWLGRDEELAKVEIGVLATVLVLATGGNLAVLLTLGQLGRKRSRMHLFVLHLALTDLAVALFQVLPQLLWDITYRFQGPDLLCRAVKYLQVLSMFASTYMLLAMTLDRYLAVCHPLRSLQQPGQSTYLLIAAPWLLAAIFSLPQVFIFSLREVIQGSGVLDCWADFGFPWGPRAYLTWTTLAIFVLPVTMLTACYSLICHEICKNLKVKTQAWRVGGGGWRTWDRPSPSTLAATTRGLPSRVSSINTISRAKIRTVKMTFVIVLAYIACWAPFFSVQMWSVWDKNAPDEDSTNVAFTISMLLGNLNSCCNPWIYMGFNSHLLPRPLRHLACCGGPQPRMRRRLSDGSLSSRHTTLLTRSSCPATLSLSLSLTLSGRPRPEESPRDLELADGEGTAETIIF

[2] = molecular target: human vasopressin V1a receptor (Homo sapiens, UniProt P37288); assay: Vasopressin V1a receptor binding assay; settings: selectivity for human V1b over human V1a, quotient of binding constants
human vasopressin V1a receptor, sequence (P37288 whole entry): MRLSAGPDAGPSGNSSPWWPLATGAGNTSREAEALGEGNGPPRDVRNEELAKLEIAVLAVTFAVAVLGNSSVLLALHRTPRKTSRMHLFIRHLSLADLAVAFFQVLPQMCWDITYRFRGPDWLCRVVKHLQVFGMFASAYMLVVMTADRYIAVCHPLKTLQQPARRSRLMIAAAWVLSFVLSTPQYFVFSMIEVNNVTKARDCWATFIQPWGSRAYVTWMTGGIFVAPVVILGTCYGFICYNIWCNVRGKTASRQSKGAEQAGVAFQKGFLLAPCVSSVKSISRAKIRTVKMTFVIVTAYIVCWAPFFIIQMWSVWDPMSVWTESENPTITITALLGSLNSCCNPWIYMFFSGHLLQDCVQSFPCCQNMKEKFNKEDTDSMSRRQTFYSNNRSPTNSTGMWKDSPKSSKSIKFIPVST

[3] = molecular target: T1, human vasopressin V1b receptor; assay: biochemical; settings: Ki(h-V1b)* [nM], CHO-K1 cell membranes, displacement of 3H-AVP

Structure (SMILES)	Ki [1] [nM]	Ki(h-V1a)/Ki(h-V1b) [2]	Ki [3] [nM]
CCOc1ncccc1[C@]1(NC(=O)N2CC3(CN(CCN4CCOCC4)C3)C2)C(=O)N(S(=O)(=O)c2ccc(F)cc2OC)c2ccc(C#N)cc21 [Example 3, N-[(3S)-5-Cyano-3-(2-ethoxy-3-pyridyl)-1-(4-fluoro-2-methoxy-phenyl)sulfonyl-2-oxo-indolin-3-yl]-2-(2-morpholinoethyl)-2,6-diazaspiro[3.3]heptane-6-carboxamide]	1 to 10	+++ (>75)	–
CCOc1ncccc1C1(NC(=O)N2CC3(C2)CN(C2CCNCC2)C3)C(=O)N(S(=O)(=O)c2ccc(OC)cc2OC)c2ccc(C#N)cc21.O=C(O)C(F)(F)F (stereo not drawn) [Example 59, N-(5-Cyano-1-(2,4-dimethoxyphenylsulfonyl)-3-(2-ethoxypyridin-3-yl)-2-oxoindolin-3-yl)-6-(piperidin-4-yl)-2,6-diazaspiro[3.3]heptane-2-carboxamide 2,2,2-trifluoroacetate]	–	+++ (>75)	10 to 100
CCOc1ncccc1C1(NC(=O)N2CC3(CCNCC3)C2)C(=O)N(S(=O)(=O)c2ccc(OC)cc2OC)c2ccc(C#N)cc21.O=C(O)C(F)(F)F (stereo not drawn) [Example 60, N-(5-Cyano-1-(2,4-dimethoxyphenylsulfonyl)-3-(2-ethoxypyridin-3-yl)-2-oxoindolin-3-yl)-2,7-diazaspiro[3.5]nonane-2-carboxamide 2,2,2-trifluoroacetate]	–	++ (25-75)	1 to 10
